Reference: ChEMBL document CHEMBL4507272 (2021)

Legend:
[1] = biological target: Tyrosine-protein kinase Lck (Homo sapiens) (UniProt P06239); details: Compound concentration 1000.0 nM
[2] = test system: Epidermal growth factor receptor (Homo sapiens), P00533 [UNDEFINED MUTATION]; details: Compound concentration 1000.0 nM
[3] = biological target: RAC-alpha serine/threonine-protein kinase (Homo sapiens) (UniProt P31749); details: Compound concentration 1000.0 nM
[4] = biological target: Tyrosine-protein kinase ABL2 (Homo sapiens) (UniProt P42684); details: Compound concentration 1000.0 nM
[5] = biological target: MAP/microtubule affinity-regulating kinase 4 (Homo sapiens) (UniProt Q96L34); details: Compound concentration 1000.0 nM
[6] = biological target: Inhibitor of nuclear factor kappa-B kinase subunit alpha (Homo sapiens) (UniProt O15111); details: Compound concentration 1000.0 nM
[7] = biological target: Membrane-associated tyrosine- and threonine-specific cdc2-inhibitory kinase (Homo sapiens) (UniProt Q99640); details: Compound concentration 1000.0 nM
[8] = biological target: Tyrosine-protein kinase Fgr (Homo sapiens) (UniProt P09769); details: Compound concentration 1000.0 nM
[9] = test system: Receptor-type tyrosine-protein kinase FLT3 (Homo sapiens), P36888 [D835H]; details: Compound concentration 1000.0 nM
[10] = biological target: Serine/threonine-protein kinase ULK2 (Homo sapiens) (UniProt Q8IYT8); details: Compound concentration 1000.0 nM
[11] = biological target: Casein kinase II subunit alpha' (Homo sapiens) (UniProt P19784); details: Compound concentration 1000.0 nM
[12] = biological target: Cyclin-dependent kinase 14 (Homo sapiens) (UniProt O94921); details: Compound concentration 1000.0 nM
[13] = test system: Mast/stem cell growth factor receptor Kit (Homo sapiens), P10721 [D816V]; details: Compound concentration 1000.0 nM
[14] = biological target: NUAK family SNF1-like kinase 1 (Homo sapiens) (UniProt O60285); details: Compound concentration 1000.0 nM
[15] = test system: Phosphatidylinositol 4,5-bisphosphate 3-kinase catalytic subunit alpha isoform (Homo sapiens), P42336 [M1043I]; details: Compound concentration 1000.0 nM
[16] = biological target: Myotonin-protein kinase (Homo sapiens) (UniProt Q09013); details: Compound concentration 1000.0 nM
[17] = biological target: Maternal embryonic leucine zipper kinase (Homo sapiens) (UniProt Q14680); details: Compound concentration 1000.0 nM
[18] = biological target: Epidermal growth factor receptor (Homo sapiens) (UniProt P00533); details: Compound concentration 1000.0 nM
[19] = biological target: Receptor-type tyrosine-protein kinase FLT3 (Homo sapiens) (UniProt P36888); details: Compound concentration 1000.0 nM
[20] = biological target: Receptor tyrosine-protein kinase erbB-2 (Homo sapiens) (UniProt P04626); details: Compound concentration 1000.0 nM
[21] = biological target: Phosphatidylinositol 4,5-bisphosphate 3-kinase catalytic subunit delta isoform (Homo sapiens) (UniProt O00329); details: Compound concentration 1000.0 nM
[22] = biological target: Uncharacterized serine/threonine-protein kinase SBK3 (Homo sapiens) (UniProt P0C264); details: Compound concentration 1000.0 nM
[23] = biological target: Transient receptor potential cation channel subfamily M member 6 (Homo sapiens) (UniProt Q9BX84); details: Compound concentration 1000.0 nM
[24] = biological target: 5-hydroxytryptamine receptor 1A (Homo sapiens) (UniProt P08908); details: Compound concentration 10.0 uM
[25] = biological target: 5-hydroxytryptamine receptor 1B (Homo sapiens) (UniProt P28222); details: Compound concentration 10.0 uM
[26] = biological target: Calcium/calmodulin-dependent protein kinase type II subunit beta (Homo sapiens) (UniProt Q13554); details: Compound concentration 1000.0 nM
[27] = biological target: Ribosomal protein S6 kinase alpha-2 (Homo sapiens) (UniProt Q15349); details: Compound concentration 1000.0 nM
[28] = biological target: Insulin receptor-related protein (Homo sapiens) (UniProt P14616); details: Compound concentration 1000.0 nM
[29] = test system: Tyrosine-protein kinase ABL1 (Homo sapiens), P00519 [F317L]; details: Compound concentration 1000.0 nM
[30] = test system: Proto-oncogene tyrosine-protein kinase receptor Ret (Homo sapiens), P07949 [M918T]; details: Compound concentration 1000.0 nM
[31] = biological target: Mitogen-activated protein kinase kinase kinase 1 (Homo sapiens) (UniProt Q13233); details: Compound concentration 1000.0 nM
[32] = biological target: Tyrosine-protein kinase Lyn (Homo sapiens) (UniProt P07948); details: Compound concentration 1000.0 nM
[33] = biological target: Aurora kinase A (Homo sapiens) (UniProt O14965); details: Compound concentration 1000.0 nM
[34] = biological target: Dual specificity mitogen-activated protein kinase kinase 4 (Homo sapiens) (UniProt P45985); details: Compound concentration 1000.0 nM
[35] = biological target: Ephrin type-A receptor 2 (Homo sapiens) (UniProt P29317); details: Compound concentration 1000.0 nM
[36] = biological target: 5-hydroxytryptamine receptor 1D (Homo sapiens) (UniProt P28221); details: Compound concentration 10.0 uM
[37] = biological target: Serine/threonine-protein kinase PAK 3 (Homo sapiens) (UniProt O75914); details: Compound concentration 1000.0 nM
[38] = test system: Epidermal growth factor receptor (Homo sapiens), P00533 [UNDEFINED MUTATION]; details: Compound concentration 1000.0 nM; remark: listed apart in the source
[39] = biological target: Serine/threonine-protein kinase LATS2 (Homo sapiens) (UniProt Q9NRM7); details: Compound concentration 1000.0 nM
[40] = biological target: Calcium/calmodulin-dependent protein kinase type IV (Homo sapiens) (UniProt Q16566); details: Compound concentration 1000.0 nM
[41] = biological target: Macrophage-stimulating protein receptor (Homo sapiens) (UniProt Q04912); details: Compound concentration 1000.0 nM
[42] = biological target: Cyclin-dependent kinase 9 (Homo sapiens) (UniProt P50750); details: Compound concentration 1000.0 nM
[43] = biological target: BDNF/NT-3 growth factors receptor (Homo sapiens) (UniProt Q16620); details: Compound concentration 1000.0 nM
[44] = test system: Epidermal growth factor receptor (Homo sapiens), P00533 [UNDEFINED MUTATION]; details: Compound concentration 1000.0 nM; remark: listed apart in the source

Sequence of Epidermal growth factor receptor (Homo sapiens), P00533 [UNDEFINED MUTATION] (P00533 whole entry, looked up, change not shown): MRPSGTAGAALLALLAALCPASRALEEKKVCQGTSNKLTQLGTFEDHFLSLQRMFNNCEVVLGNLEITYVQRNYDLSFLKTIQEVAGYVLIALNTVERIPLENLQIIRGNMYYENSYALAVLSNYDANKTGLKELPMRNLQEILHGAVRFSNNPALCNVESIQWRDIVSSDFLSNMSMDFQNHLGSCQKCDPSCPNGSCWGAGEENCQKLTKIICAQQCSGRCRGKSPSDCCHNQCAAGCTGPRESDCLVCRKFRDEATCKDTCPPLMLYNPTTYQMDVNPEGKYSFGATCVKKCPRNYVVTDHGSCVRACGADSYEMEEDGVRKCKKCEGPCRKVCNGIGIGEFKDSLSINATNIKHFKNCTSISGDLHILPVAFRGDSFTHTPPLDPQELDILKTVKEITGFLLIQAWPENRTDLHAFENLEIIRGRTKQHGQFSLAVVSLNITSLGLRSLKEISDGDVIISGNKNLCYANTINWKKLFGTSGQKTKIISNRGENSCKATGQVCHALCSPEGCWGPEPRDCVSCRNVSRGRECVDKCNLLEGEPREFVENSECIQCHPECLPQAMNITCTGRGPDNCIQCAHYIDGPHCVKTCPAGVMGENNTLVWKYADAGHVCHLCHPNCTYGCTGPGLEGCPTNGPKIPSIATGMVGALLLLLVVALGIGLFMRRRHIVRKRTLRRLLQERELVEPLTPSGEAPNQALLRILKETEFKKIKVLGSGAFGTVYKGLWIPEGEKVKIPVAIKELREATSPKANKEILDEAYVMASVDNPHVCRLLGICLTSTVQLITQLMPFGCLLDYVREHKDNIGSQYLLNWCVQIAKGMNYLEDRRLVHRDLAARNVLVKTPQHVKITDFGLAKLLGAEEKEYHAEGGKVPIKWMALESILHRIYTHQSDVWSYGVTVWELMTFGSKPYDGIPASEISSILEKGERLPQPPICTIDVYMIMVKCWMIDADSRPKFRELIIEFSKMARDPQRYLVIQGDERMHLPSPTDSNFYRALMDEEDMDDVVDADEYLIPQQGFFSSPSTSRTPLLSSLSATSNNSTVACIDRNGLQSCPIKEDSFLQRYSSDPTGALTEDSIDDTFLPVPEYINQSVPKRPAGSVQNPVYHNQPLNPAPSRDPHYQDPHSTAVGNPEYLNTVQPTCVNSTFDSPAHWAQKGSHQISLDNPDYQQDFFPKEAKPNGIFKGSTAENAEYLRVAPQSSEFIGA
Sequence of 5-hydroxytryptamine receptor 1A (Homo sapiens) (P08908 whole entry): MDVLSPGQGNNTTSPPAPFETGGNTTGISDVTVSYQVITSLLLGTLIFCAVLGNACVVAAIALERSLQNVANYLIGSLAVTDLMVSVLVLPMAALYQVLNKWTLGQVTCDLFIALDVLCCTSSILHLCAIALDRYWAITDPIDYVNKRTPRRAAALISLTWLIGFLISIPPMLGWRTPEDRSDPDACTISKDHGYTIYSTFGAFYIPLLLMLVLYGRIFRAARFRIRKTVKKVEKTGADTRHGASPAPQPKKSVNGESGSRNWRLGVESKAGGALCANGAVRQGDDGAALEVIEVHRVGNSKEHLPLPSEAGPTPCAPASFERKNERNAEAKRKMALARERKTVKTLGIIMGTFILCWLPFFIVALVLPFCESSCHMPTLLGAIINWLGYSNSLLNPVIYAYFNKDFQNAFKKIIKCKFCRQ
Sequence of Insulin receptor-related protein (Homo sapiens) (P14616 27-742 limits assumed): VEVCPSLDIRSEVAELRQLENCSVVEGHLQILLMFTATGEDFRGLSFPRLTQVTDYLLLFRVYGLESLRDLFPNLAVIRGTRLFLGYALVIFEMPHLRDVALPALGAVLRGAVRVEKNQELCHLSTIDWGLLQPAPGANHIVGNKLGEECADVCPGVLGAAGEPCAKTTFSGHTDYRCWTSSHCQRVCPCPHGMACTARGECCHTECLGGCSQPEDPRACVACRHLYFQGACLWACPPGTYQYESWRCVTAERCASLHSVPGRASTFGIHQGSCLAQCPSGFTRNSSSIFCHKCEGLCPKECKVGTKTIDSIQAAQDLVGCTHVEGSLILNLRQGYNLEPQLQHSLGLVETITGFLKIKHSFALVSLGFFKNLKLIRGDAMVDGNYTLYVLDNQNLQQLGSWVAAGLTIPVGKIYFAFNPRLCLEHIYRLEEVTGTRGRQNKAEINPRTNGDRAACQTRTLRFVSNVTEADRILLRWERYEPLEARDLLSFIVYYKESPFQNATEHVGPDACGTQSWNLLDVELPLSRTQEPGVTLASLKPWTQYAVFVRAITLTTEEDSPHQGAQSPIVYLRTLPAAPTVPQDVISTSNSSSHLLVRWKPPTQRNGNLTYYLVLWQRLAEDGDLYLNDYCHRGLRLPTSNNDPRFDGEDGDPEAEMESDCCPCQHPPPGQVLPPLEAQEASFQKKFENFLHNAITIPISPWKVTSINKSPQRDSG
Sequence of Insulin receptor-related protein (Homo sapiens) (P14616 747-1297 limits assumed): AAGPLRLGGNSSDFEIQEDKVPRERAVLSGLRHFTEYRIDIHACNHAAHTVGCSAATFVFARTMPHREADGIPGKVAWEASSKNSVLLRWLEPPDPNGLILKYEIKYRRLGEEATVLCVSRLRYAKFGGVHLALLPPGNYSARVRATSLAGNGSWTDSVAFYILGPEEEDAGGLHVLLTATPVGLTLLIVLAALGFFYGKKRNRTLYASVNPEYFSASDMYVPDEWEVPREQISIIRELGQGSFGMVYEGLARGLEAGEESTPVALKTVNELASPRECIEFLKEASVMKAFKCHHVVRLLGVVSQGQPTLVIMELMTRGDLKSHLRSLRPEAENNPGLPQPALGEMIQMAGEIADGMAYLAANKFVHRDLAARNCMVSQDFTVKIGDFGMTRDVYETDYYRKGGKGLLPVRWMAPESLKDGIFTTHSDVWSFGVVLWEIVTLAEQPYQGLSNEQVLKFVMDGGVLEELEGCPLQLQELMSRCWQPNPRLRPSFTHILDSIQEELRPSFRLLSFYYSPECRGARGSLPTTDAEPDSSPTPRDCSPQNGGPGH
Sequence of Serine/threonine-protein kinase LATS2 (Homo sapiens) (Q9NRM7 whole entry): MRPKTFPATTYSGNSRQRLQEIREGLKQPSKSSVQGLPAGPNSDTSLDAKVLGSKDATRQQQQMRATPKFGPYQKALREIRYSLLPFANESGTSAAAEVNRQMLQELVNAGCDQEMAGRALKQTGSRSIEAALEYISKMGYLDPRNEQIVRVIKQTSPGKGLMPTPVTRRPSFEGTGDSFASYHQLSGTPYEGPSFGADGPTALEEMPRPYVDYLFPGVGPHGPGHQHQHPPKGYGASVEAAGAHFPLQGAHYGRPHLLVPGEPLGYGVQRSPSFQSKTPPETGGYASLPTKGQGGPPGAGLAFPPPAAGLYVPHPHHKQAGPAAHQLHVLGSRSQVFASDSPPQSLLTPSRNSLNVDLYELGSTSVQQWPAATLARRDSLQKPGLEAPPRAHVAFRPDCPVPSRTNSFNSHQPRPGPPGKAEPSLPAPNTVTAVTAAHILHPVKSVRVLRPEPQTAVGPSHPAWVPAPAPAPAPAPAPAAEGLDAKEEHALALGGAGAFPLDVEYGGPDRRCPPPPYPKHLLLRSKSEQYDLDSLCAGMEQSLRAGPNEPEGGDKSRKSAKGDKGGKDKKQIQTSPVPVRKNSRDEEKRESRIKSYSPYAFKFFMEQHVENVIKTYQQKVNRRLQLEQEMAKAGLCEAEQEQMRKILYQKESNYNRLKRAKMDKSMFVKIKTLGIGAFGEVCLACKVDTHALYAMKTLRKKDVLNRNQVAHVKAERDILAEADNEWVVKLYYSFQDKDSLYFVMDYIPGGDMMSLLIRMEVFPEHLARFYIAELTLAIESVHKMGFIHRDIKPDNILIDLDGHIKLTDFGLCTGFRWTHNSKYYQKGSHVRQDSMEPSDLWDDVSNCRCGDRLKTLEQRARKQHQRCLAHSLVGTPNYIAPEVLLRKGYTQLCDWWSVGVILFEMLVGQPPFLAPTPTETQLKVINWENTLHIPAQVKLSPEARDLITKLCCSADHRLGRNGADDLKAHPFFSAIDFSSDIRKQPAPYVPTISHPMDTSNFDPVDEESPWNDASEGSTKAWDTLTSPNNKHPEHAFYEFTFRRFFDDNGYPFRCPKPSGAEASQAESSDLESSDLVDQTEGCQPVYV
Sequence of NUAK family SNF1-like kinase 1 (Homo sapiens) (O60285 whole entry, canonical isoform): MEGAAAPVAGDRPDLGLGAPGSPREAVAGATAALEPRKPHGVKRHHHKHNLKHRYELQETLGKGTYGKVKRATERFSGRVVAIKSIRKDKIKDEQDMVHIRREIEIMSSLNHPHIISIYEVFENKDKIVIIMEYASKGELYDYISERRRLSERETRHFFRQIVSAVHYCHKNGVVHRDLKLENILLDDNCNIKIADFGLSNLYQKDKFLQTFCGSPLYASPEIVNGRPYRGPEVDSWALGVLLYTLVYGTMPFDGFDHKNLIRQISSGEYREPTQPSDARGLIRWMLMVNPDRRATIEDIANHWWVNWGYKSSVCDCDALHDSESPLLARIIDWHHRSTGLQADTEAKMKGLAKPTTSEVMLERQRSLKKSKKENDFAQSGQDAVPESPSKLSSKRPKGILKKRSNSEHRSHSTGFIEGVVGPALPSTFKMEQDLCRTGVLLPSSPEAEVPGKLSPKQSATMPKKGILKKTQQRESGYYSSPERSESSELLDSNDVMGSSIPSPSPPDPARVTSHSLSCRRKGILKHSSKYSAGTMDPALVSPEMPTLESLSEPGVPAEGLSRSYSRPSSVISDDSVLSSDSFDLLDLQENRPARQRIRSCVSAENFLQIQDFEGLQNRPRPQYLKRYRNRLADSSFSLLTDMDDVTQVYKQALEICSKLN
Sequence of Uncharacterized serine/threonine-protein kinase SBK3 (Homo sapiens) (P0C264 whole entry): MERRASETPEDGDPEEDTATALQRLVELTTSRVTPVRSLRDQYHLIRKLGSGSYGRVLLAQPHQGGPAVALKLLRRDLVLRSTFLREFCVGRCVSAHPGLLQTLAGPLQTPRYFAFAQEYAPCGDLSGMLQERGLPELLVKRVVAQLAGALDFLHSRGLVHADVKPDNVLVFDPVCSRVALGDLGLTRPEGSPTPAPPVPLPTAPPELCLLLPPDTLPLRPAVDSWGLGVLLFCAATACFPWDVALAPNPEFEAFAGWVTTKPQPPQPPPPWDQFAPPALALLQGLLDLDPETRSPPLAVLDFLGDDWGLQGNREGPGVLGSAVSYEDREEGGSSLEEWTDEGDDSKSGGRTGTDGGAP

CC(=O)C1=C(C)N(c2cccc(C(F)(F)F)c2)C(=O)N[C@@H]1c1ccc(C#N)nc1 [BAY-678]
inactive: residual activity [1] 100% | residual activity [2] 92.9% | residual activity [3] 90.4% | residual activity [4] 100% | residual activity [5] 100% | residual activity [6] 100% | residual activity [7] 90.6% | residual activity [8] 86.7% | residual activity [9] 100% | residual activity [10] 100% | residual activity [11] 75.7% | residual activity [12] 91.7% | residual activity [13] 100% | residual activity [14] 93.2% | residual activity [15] 100% | residual activity [16] 86.5% | residual activity [17] 88.2% | residual activity [18] 78.2% | residual activity [19] 100% | residual activity [20] 95.6% | residual activity [21] 89.8% | residual activity [22] 100% | residual activity [23] 83.8% | inhibition [24] 50% | inhibition [25] 6.69% | residual activity [26] 95.7% | residual activity [27] 72.8% | residual activity [28] 99.6% | residual activity [29] 97.1% | residual activity [30] 100% | residual activity [31] 100% | residual activity [32] 100% | residual activity [33] 83.9% | residual activity [34] 98.1% | residual activity [35] 100% | inhibition [36] 10.9% | residual activity [37] 86.3% | residual activity [38] 78.6% | residual activity [39] 100% | residual activity [40] 54.3% | residual activity [41] 81.1% | residual activity [42] 100% | residual activity [43] 98.1% | residual activity [44] 80.3%
